# From US20020006406A1, “METHOD FOR THE TREATMENT OF STAPHYLOCOCCAL DISEASE” (priority 1997, published 2002)
# What was measured:
# S. aureus [1] = assay: MBC by standard broth microdilution (kills 99.9% of inoculum in 24 h); assay type: cell-based
# Text: (§1) Approved Standard M7-A3. Methods for dilution antimicrobial susceptibility tests for bacteria that grow aerobically—Third edition. National Committee for Clinical Laboratory Standards, Villanova, Pa.; National Committee for Clinical Laboratory Standards, 1992. Tentative Guideline M26-T. Methods for determining bactericidal activity of antimicrobial agents. National Committee for Clinical Laboratory Standards, Villanova, Pa.].
# [2] = tested on: Staphylococcus epidermidis; assay: MIC against Staphylococcus epidermidis clinical isolates; assay type: cell-based; conditions: 11 of 13 clinical isolates of S. epidermidis tested
# Text: as §1
# [3] = at least 50 mg/kg/treatment; cited from earlier work
# S. aureus [4] = assay: MIC by broth macrodilution in glass tubes; assay type: cell-based
# Procedure: In this experiment, MICs were determined by broth macrodilution in 1 ml final volumes in glass tubes. Otherwise, the methodology was as described above.
# S. aureus Smith = assay: Acute S. aureus infection model in mice (survival); assay type: in vivo
# Procedure: The efficacy of lysostaphin was compared to that of vancomycin in an acute infection model in mice. S. aureus Smith was cultured overnight, with moderate agitation, in Veal Infusion broth (Difco) and diluted in broth containing 5% hog gastric mucin (Difco). Male Swiss-Webster mice (Taconic Farms, Germantown, N.Y.) weighing approximately 20 grams were infected intraperitoneally with 10^5-10^6 viable cells, approximately tenfold the inoculum that reproducibly killed all untreated animals within 48 h. There were six mice in each treatment group. Lysostaphin was administered intravenously (in 0.1 ml 5% dextrose for injection) or subcutaneously (in 0.2 ml), within 10 min of infection. Vancomycin was administered subcutaneously.
# S. aureus strain AG461 = conditions: strain AG461 (methicillin-resistant clinical isolate)
# Text: The different concentrations of lysostaphin and vancomycin used were one and eight times their respective MIC.
# [5] = single parenteral dose, followed by gentamicin three days later; the patient died; cited from earlier work
# [6] = lysostaphin intravenously vs vancomycin
substance,measurement,setting,value
lysostaphin: recombinant lysostaphin enzyme from fermentation of B. sphaericus; majority component lacks the two N-terminal amino acids of the published sequence,minimal bactericidal concentrations (MBC),S. aureus [1]; clinical isolates of S. aureus (summary of Table 1a),≤ 1.0 mg/L
same,MBC,S. aureus [1]; strain 402 (clinical isolate),0.5 mg/L
same,MBC,"S. aureus [1]; strain 404 (clinical isolate, methicillin-resistant)",0.5 mg/L
same,MBC,S. aureus [1]; strain 412,0.25 mg/L
same,MBC,S. aureus [1]; strain 414,0.25 mg/L
same,MBC,"S. aureus [1]; strain 450M (clinical isolate, methicillin-resistant)",0.5 mg/L
same,MBC,"S. aureus [1]; strain 1573 (clinical isolate, methicillin-resistant)",1 mg/L
same,MBC,"S. aureus [1]; strain 27222 (clinical isolate, methicillin-resistant)",0.25 mg/L
same,MBC,"S. aureus [1]; strain 27286 (clinical isolate, methicillin-resistant)",0.5 mg/L
same,MBC,"S. aureus [1]; strain 27287 (clinical isolate, methicillin-resistant)",0.25 mg/L
same,MBC,"S. aureus [1]; strain 27295 (clinical isolate, methicillin-resistant)",0.25 mg/L
same,MBC,"S. aureus [1]; strain 27619 (clinical isolate, methicillin-resistant)",0.5 mg/L
same,MBC,"S. aureus [1]; strain 27619VR (laboratory-derived, intermediate susceptibility to vancomycin)",0.5 mg/L
same,MBC,"S. aureus [1]; strain 27621 (clinical isolate, methicillin-resistant)",0.25 mg/L
same,MBC,"S. aureus [1]; strain 27622 (clinical isolate, methicillin-resistant)",0.25 mg/L
same,MBC,"S. aureus [1]; strain 27698 (clinical isolate, methicillin-resistant)",0.5 mg/L
same,MBC,"S. aureus [1]; strain 29293 (clinical isolate, methicillin-resistant)",0.25 mg/L
same,MBC,"S. aureus [1]; strain COL (clinical isolate, methicillin-resistant)",0.25 mg/L
same,MBC,"S. aureus [1]; strain HP5827 (clinical isolate, methicillin-resistant, VISA)",0.5 mg/L
same,MBC,"S. aureus [1]; strain HP5836 (clinical isolate, methicillin-resistant, VISA)",1 mg/L
same,MIC,[2],≤ 8 mg/L
same,"effectiveness (health of the dogs, reduction of bacteria in heart valves and kidneys)",[3],only moderately effective
same,MIC,S. aureus [4]; strain AG402 (clinical isolate),.008 mg/L
same,MIC,"S. aureus [4]; strain AG404 (clinical isolate, methicillin-resistant)",.008 mg/L
same,MIC,S. aureus [4]; strain AG414,.004 mg/L
same,MIC,S. aureus [4]; strain AG417,.004 mg/L
same,% survival,S. aureus Smith; 0.08 mg/kg iv within 10 min of infection,33%
same,% survival,S. aureus Smith; 0.16 mg/kg iv within 10 min of infection,100%
same,% survival,S. aureus Smith; 0.31 mg/kg iv within 10 min of infection,100%
same,% survival,S. aureus Smith; 0.63 mg/kg iv within 10 min of infection,100%
same,% survival,S. aureus Smith; 1.25 mg/kg sc,67%
same,% survival,S. aureus Smith; 2.5 mg/kg sc,100%
same,% survival,S. aureus Smith; 5 mg/kg sc,100%
same,% survival,S. aureus Smith; 10 mg/kg sc,100%
same,% survival,S. aureus Smith; 20 mg/kg sc,100%
same,% survival,"S. aureus Smith; Table 4 experiment, dose 0.04 mg/kg",0%
same,% survival,"S. aureus Smith; Table 4 experiment, dose 0.08 mg/kg",17%
same,% survival,"S. aureus Smith; Table 4 experiment, dose 0.16 mg/kg",83%
same,"effectiveness relative to vancomycin, on a molar basis",S. aureus Smith; [6],about 200 times
same,"effectiveness relative to vancomycin, on a weight basis",S. aureus Smith; [6],16 times
same,MIC (lower time-kill concentration stated to be one times MIC),S. aureus strain AG461,0.004 mg/L
same,outcome in one very ill human patient,[5],reduction in bacteremia
